In patent US4022791A (priority 1975, dated 1977):

What was measured:
mice [1] = details: mouse, in vivo; for Hot Plate 2 hr (percentage of mice showing analgesia) / Hot Plate .5 hr (percentage of mice showing analgesia): ip
mice [2] = assay: animal or person; assay type: in vivo, mouse; details: mouse, in vivo, ip
Rats = tested on: Rats; set-up: Rat Jump .5 hr (current at which the animal first jumps) / Rat Jump .5 hr, second value printed in parentheses / Rat Jump 2 hr (current at which the animal first jumps): unit not given here; details: in vivo; for Rat Jump 2 hr (current at which the animal first jumps) / Rat Jump .5 hr (current at which the animal first jumps): ip
mice [3] = details: mouse, in vivo; for Tail Flick 2 hr (percentage of analgesia response) / Tail Flick .5 hr (percentage of analgesia response): ip
Throughout, for Hot Plate .5 hr (percentage of mice showing analgesia): test concentration or dose not given here.
Throughout, for Hot Plate 2 hr (percentage of mice showing analgesia): test concentration or dose not given here.
Throughout, for Tail Flick .5 hr (percentage of analgesia response): test concentration or dose not given here.
Throughout, for Tail Flick 2 hr (percentage of analgesia response): test concentration or dose not given here.
Throughout, for Tail Pinch .5 hr (percentage of mice showing analgesia): test concentration or dose not given here.
Throughout, for Tail Pinch 2 hr (percentage of mice showing analgesia): test concentration or dose not given here.

| Compound | Hot Plate 2 hr (percentage of mice showing analgesia) (mice [1]) | Hot Plate .5 hr (percentage of mice showing analgesia) (mice [1]) | Tail Pinch 2 hr (percentage of mice showing analgesia) (mice [2]) | Tail Pinch .5 hr (percentage of mice showing analgesia) (mice [2]) | Rat Jump 2 hr (current at which the animal first jumps) (Rats) | Rat Jump .5 hr (current at which the animal first jumps) (Rats) | Tail Flick 2 hr (percentage of analgesia response) (mice [3]) | Tail Flick .5 hr (percentage of analgesia response) (mice [3]) | activity in the Hot Plate test (mice [1]) | activity in the Rat Jump Test (Rats) | activity in the Tail Flick test (mice [3]) |
| --- | --- | --- | --- | --- | --- | --- | --- | --- | --- | --- | --- |
| COc1ccc(Cl)c2c1CCC(CN1CCN(C)CC1)=C2 | 0 | 60 | 0 | 80 | 1.2 | 1.2 | 0 | 30 | – | – | – |
| COc1ccc(Cl)c2c1CCC(CN1CCN(c3ccc(Cl)cc3)CC1)=C2 | 0 | 10 | 0 | 0 | 1.2 | 1.2 | 0 | 0 | – | – | – |
| CCOC1(c2ccccc2)CCN(CC2=Cc3c(Cl)ccc(OC)c3CC2)CC1 | 0 | 50 | 20 | 0 | 1.2 | 1.2 | 0 | 10 | – | – | – |
| COc1ccc(Cl)c2c1CCC(CN1CCC(c3ccccc3)CC1)=C2 | 0 | 30 | 0 | 0 | 1.2 | 1.2 | 0 | 0 | – | – | – |
| COc1ccc(Cl)c2c1CCC(CN1CCN(c3cccc(C(F)(F)F)c3)CC1)=C2 | 0 | 10 | 0 | 0 | 1.2 | 1.2 | 0 | 0 | – | – | – |
| COc1ccc(Cl)c2c1CCC(CN(C)CCN1CCCC1)=C2 | 0 | 0 | 0 | 0 | 1.2 | 1.2 | 0 | 0 | – | – | – |
| COc1ccc(Cl)c2c1CCC(CN1CC=C(c3ccc(Cl)cc3)CC1)=C2 | 0 | 0 | 0 | 0 | 1.2 | 1.2 | 0 | 0 | – | – | – |
| COc1ccc(Cl)c2c1CCC(CN1CCSC1)=C2 | 0 | 0 | 0 | 0 | 1.2 | 1.2 | 0 | 0 | – | – | – |
| COc1ccc(Cl)c2c1CCC(CN1CCC(C(=O)N(C)C)CC1)=C2 | – | – | – | – | 1.2 | 1.2 | – | – | – | – | – |
| COc1ccc(Cl)c2c1CCC(CN1CCC(C(=O)N3CCOCC3)CC1)=C2 | – | – | – | – | 1.2 | 1.2 | – | – | – | – | – |
| CN1CC[C@]23c4c5ccc(O)c4O[C@H]2[C@@H](O)C=C[C@H]3[C@H]1C5.O=S(=O)(O)O [Morphine Sulfate, reference compound] | – | – | – | – | – | > 2.2 | 100 | 100 | – | – | – |
| COc1ccc(Cl)c2c1CCC(CN(C)C)=C2 [N(CH3)2] | 0 | 0 | 0 | 0 | 0.6 | 1.2 | 0 | 0 | – | – | – |
| COc1ccc(Cl)c2c1CCC(CN1CCCC1)=C2C [reference compound] | – | – | – | – | – | – | – | – | marginal activity | inactive | marginal activity |
